Results reported in patent US4576956A, “Iodo propargylaminoisoxazoles as fungicides” (Shionogi & Co., Ltd., priority 1982, dated 1986).
Converted amounts (≈) assume the structure as drawn.

What was measured:
Mycoplasma hyopneumonia = assay: growth inhibition of a swine enzootic pneumonia-causative bacteria; format: cell-based; details: one range for the listed compounds, read-out: concentration inhibiting the growth
Botrytis cinerea = assay: Test B-1 Control Test of Botrytis Rot (Gray Mold) of Cucumber; format: in vivo; details: 500 ppm, 3 days
Protocol: Test B-1 Control Test of Botrytis Rot (Gray Mold) of Cucumber Seedlings of Cucumber (Cultivar: Matsukaze) were planted and grown in soil in vinyl-chloride cups of 9 cm in diameter in a greenhouse. […] The treated cucumbers were kept for 3 days in a greenhouse (20° C.) and then disease degrees were counted. Standard of Evaluation […] (2) A slight soaked lesion on the reverse of the test leaf . . . × 5 (3) A slight fade of the leaf . . . × 10 (4) The inoculated part was faded and the fading expanded erosively . . . × 20 [formula]

Trichophyton asteroides [1] = assay: Test A-1 Anti-fungal Activity (MIC), microwell dilution; format: cell-based; details: T. asteroides, in vitro, 1×10^5 cells/ml
Protocol: (§1) Test A-1 Anti-fungal Activity (MIC)
The following results (Table 1) were obtained in an anti-fungal activity test in vitro against Aspergillus fumigatus, Candida albicans M-9 and Trichophyton asteroides. The concentration of the test cells was 1×10^5 cells/ml and the activity was measured by a microwell dilution method. The structure of the test compounds is referred to in the Examples.

Rhizoctonia solani = assay: Test B-6 Control Test to Damping-off of Cucumber; format: in vivo; details: R*, 500 ppm, soil drench, 1 week
Protocol: (§2) Test B-6 Control Test to Damping-off of Cucumber
(§3) Twenty cucumber seeds were sown into sterilized soil (150 ml) in a pot of 9 cm in diameter. The fungi, Phythium aphanidermatum, Fusarium oxysporum and Rhizoctonia solani were cultured on a wheat bran medium for 5 days and an additional 2 days thereafter were mixed with sterilized soil. The surface of the sown spots was covered with the above culture medium. A test solution (30 ml) at a prescribed concentration was poured into each pot. The pots were kept in a greenhouse (28° C.) for 1 week in the case of Pythium and Rhizoctonia and for 2 weeks in the case of Fusarium.
(§4) The disease degree was observed and percent disease degree was calculated by the following formula: […]
(§5) (1) No germination . . . x 4
(§6) (2) Germed but withered . . . x 3
(§7) (3) Disordered in 1/3 or more . . . x 2
(§8) (4) Disordered in less than 1/3 . . . x 1
(§9) (5) Not damaged . . . x 0 [formula]
(§10) The percent disease control was calculated in the same manner as in Test B-1.

Fusarium oxysporum = assay: Test B-6 Control Test to Damping-off of Cucumber; format: in vivo; details: F*, 500 ppm, soil drench, 2 weeks
Protocol: as §2, §3, §4, §5, §6, §7, §8, §9, §10

Pythium aphanidermatum = assay: Test B-6 Control Test to Damping-off of Cucumber; format: in vivo; details: P*, 500 ppm, soil drench, 1 week
Protocol: as §2, §3, §4, §5, §6, §7, §8, §9, §10

Pyricularia oryzae = format: in vivo; details: 500 ppm; rice plant blast, 24 hours + 7 days
Mycoplasma gallisepticum = assay: minimum inhibition concentration; format: cell-based; details: Mycoplasmoides gallisepticum, one range for the listed compounds
Aspergillus fumigatus = assay: Test A-1 Anti-fungal Activity (MIC), microwell dilution; format: cell-based; details: in vitro, 1×10^5 cells/ml
Protocol: as §1
(§11) The concentration of the test cells was 1×10^5 cells/ml and the activity was measured by a microwell dilution method. The structure of the test compounds is referred to in the Examples.

Candida albicans M-9 = assay: as above; format: cell-based; details: M9, C. albicans M-9, in vitro, 1×10^5 cells/ml
Protocol: as §1, §11

[2] = test system: Colletotrichum lagenarium; assay: Test B-4 Control Test to Anthracnose of Cucumber; format: in vivo; details: 500 ppm, 3 + 3 days
Protocol: Test B-4 Control Test to Anthracnose of Cucumber Each cucumber seedling was sprayed with 2.5 ml of a test solution in the same manner as in Test B-1. After the spraying, the seedlings were kept at 25°-26° C. for a day and were inoculated with five filter-paper disks of 6 mm in diameter saturated with a conidium suspension of Colletotrichum lagenarium at a concentration of 1×10^6 conidia/ml. The treated seedlings were kept in a greenhouse (25° C.) for 3 days and further kept at below 25° C. for 3 days. Standard of Evaluation The same as noted in Test B-3.

Sclerotinia sclerotiorum = assay: Test B-2 Control Test to Sclerotinia Rot of Cucumber; format: in vivo; details: 48 h, 2 days, read-out: Percent Disease Control
Protocol: Test B-2 Control Test to Sclerotinia Rot of Cucumber
Cucumber seedlings were sprayed with 2.5 ml of a test solution in the same manner as in Test B-1. Afterthe spraying, the seedlings were kept at 25°-26° C. for a day and three disks of 4 mm in diameter containing mycelia of Sclerotinia sclerotiorum were put on a primary leaf and then 10 μl of PD broth were dropped on the disks. The treated seedlings were kept ina greenhouse (20° C.) for 2 days and then the diameters of the disease spots were measured by a pair of slide callipers. [formula]

Candida albicans = assay: Test A-2 Anti-fungal Activity (MCC); details: 48 h, read-out: MCC (Minimal Cidal Concentration)
Protocol: (§12) Some MCC (Minimal Cidal Concentration) values (Table 1) were obtained against Candida albicans and Trichophyton asteroides by the following method. After the MIC value was obtained by the microwell method, a loopful amount was picked up from the medium in which no growth of the fungus was observed, inoculated into a Subrouraud's glucose agar medium and incubated at 28° C. for 2 days in the case of C. albicans and for 7 days in the case of T. asteroides.

Trichophyton asteroides [3] = assay: Test A-2 Anti-fungal Activity (MCC); details: 168 h, read-out: MCC (Minimal Cidal Concentration)
Protocol: as §12

Sphaerotheca fuliginea = assay: Test B-5 Control Test to Powdery Mildew of Cucumber; format: in vivo; details: 500 ppm, 2 weeks
Protocol: Test B-5 Control Test to Powdery Mildew of Cucumber
Each cucumber seedling was sprayed with 2.5 ml of a test solution. The seedlings were kept at 25°-26° C. for 1 day after the spraying and then sprayed with a conidium (1×10^5 conidia/ml) of Sphaerotheca fuliginea in a 100 ppm spreader solution (containing 20% polyoxyethylene glycol alkyl phenol ether and 12% lignin sulfonate) at a rate of 25 ml/20 cups.
The seedlings were kept in a greenhouse (25° C.) for 2 weeks and then observed.
Standard of Evaluation [formula]
as §10

[4] = test system: Pseudoperonospora cubensis; assay: Test B-3 Control Test to Downy Mildew of Cucumber; format: in vivo; details: 500 ppm, 7 days
Protocol: Test B-3 Control Test to Downy Mildew of Cucumber
Each cucumber seedling was sprayed with 2.5 ml of a test solution in the same manner as in Test B-1. After the spraying, the seedlings were kept at 25°-26° C. for a day and a zoosporangium suspension or Pseudoperonospora cubensis was inoculated at a rate of five spots per leaf on a primary leaf. The treated seedlings were kept in a greenhouse for 7 days and then observed.
(2) Slight disease at the inoculation spot . . . X5
(3) A disease spot in the same size as the inoculation spot (without spreading) . . . x10
(4) A disease spot larger than the inoculation spot . . . x20
Disease degree and percent disease control were calculated in the same manner as in Test B-1.

In the case of `CN(CC#CI)c1onc2c1CCCC2` [Comp. 15], the MIC (Mycoplasma hyopneumonia) is reported as 3.13 to 12.5 µg/mL (≈ 9.9 to 39.5 µM) and the “Percent Disease Control” value (Botrytis cinerea) is reported as 100%.

With `Cc1noc(NCC#CI)c1C` [Comp. 19] the MIC (Trichophyton asteroides [1]) was 0.8 µg/mL (≈ 2.9 µM), the “Percent Disease Control” value (Rhizoctonia solani) was 100% and the “Percent Disease Control” value (Fusarium oxysporum) was 78%. The “Percent Disease Control” value (Pythium aphanidermatum) was 100%, the “Percent Disease Control” value (Pyricularia oryzae) was 100% and the MIC (Mycoplasma gallisepticum) was 6.25 to 12.5 µg/mL (≈ 22.6 to 45.3 µM). For the same compound, the MIC (Aspergillus fumigatus) was 3.1 µg/mL (≈ 11.2 µM), the MIC (Candida albicans M-9) was 0.8 µg/mL (≈ 2.9 µM) and the “Percent Disease Control” value [2] was 100%. The pest or weed control at 500 ppm (Sclerotinia sclerotiorum) was 100%.

`Cc1noc(N(C)CC#CI)c1C` [Comp. 20] was tested, and the MFC (Candida albicans) was 50 µg/mL (≈ 172 µM), the MIC (Trichophyton asteroides [1]) was 0.8 µg/mL (≈ 2.76 µM) and the “Percent Disease Control” value (Rhizoctonia solani) was 100%. The “Percent Disease Control” value (Fusarium oxysporum) was 57%, the “Percent Disease Control” value (Pythium aphanidermatum) was 100% and the “Percent Disease Control” value (Pyricularia oryzae) was 100%. For the same compound, the MFC (Trichophyton asteroides [3]) was 3.1 µg/mL (≈ 10.7 µM), the MIC (Mycoplasma gallisepticum) was 6.25 to 12.5 µg/mL (≈ 21.5 to 43.1 µM) and the MIC (Aspergillus fumigatus) was 0.8 µg/mL (≈ 2.76 µM). It also gave an MIC (Candida albicans M-9) of 0.8 µg/mL (≈ 2.76 µM) and a pest or weed control at 500 ppm (Sclerotinia sclerotiorum) of 100%.

In the case of `CCN(CC#CI)c1onc(C)c1C` [Comp. 21], the MIC (Trichophyton asteroides [1]) is reported as 1.6 µg/mL (≈ 5.26 µM), the MIC (Aspergillus fumigatus) is reported as 1.6 µg/mL (≈ 5.26 µM) and the MIC (Candida albicans M-9) is reported as 1.6 µg/mL (≈ 5.26 µM).

With `Cc1noc(N(C)CC#CI)c1Cl` [Comp. 24] the MFC (Candida albicans) was 12.5 µg/mL (≈ 40.3 µM), the MIC (Trichophyton asteroides [1]) was 0.4 µg/mL (≈ 1.29 µM) and the “Percent Disease Control” value (Rhizoctonia solani) was 100%. The “Percent Disease Control” value (Fusarium oxysporum) was 93%, the “Percent Disease Control” value (Pythium aphanidermatum) was 100% and the “Percent Disease Control” value (Botrytis cinerea) was 100%. For the same compound, the “Percent Disease Control” value (Sphaerotheca fuliginea) was 100%, the MFC (Trichophyton asteroides [3]) was 3.1 µg/mL (≈ 9.98 µM) and the MIC (Aspergillus fumigatus) was 0.8 µg/mL (≈ 2.58 µM). It also gave an MIC (Candida albicans M-9) of 0.2 µg/mL (≈ 0.644 µM) and a pest or weed control at 500 ppm (Sclerotinia sclerotiorum) of 100%.

`CC(C)c1noc(N(C)CC#CI)c1Cl` [Comp. 26] was tested, and the MIC (Trichophyton asteroides [1]) was 1.6 µg/mL (≈ 4.73 µM), the “Percent Disease Control” value [4] was 100% and the “Percent Disease Control” value (Sphaerotheca fuliginea) was 100%. For the same compound, the MIC (Aspergillus fumigatus) was 50 µg/mL (≈ 148 µM), the MIC (Candida albicans M-9) was 6.3 µg/mL (≈ 18.6 µM) and the “Percent Disease Control” value [2] was 100%.

For `CN(CC#CI)c1onc(-c2ccccc2)c1Cl` [Comp. 27], the “Percent Disease Control” value (Pyricularia oryzae) was 100%.

In the case of `Clc1ccccc1C(c1ccccc1)(c1ccccc1)n1ccnc1` [Ref. Comp., Clotrimazole, reference compound], the MFC (Candida albicans) is reported as over 100 µg/mL, the MIC (Trichophyton asteroides [1]) is reported as 0.2 µg/mL (≈ 0.58 µM) and the MFC (Trichophyton asteroides [3]) is reported as 6.3 µg/mL (≈ 18.3 µM). The MIC (Aspergillus fumigatus) was 12.5 µg/mL (≈ 36.2 µM) and the MIC (Candida albicans M-9) was 6.3 µg/mL (≈ 18.3 µM).

With `Cc1cc(N(C)CC#CI)no1` [compound 32, 3-(N-methyl-N-3-iodo-2-propynyl)amino-5-methylisoxazole] the MIC (Trichophyton asteroides [1]) was 3.1 µg/mL (≈ 11.2 µM), the “Percent Disease Control” value (Rhizoctonia solani) was 100% and the “Percent Disease Control” value (Fusarium oxysporum) was 50%. The “Percent Disease Control” value (Pythium aphanidermatum) was 100%, the “Percent Disease Control” value (Botrytis cinerea) was 100% and the “Percent Disease Control” value (Sphaerotheca fuliginea) was 100%. The “Percent Disease Control” value (Pyricularia oryzae) was 98%, the MIC (Aspergillus fumigatus) was 1.6 µg/mL (≈ 5.8 µM) and the MIC (Candida albicans M-9) was 1.6 µg/mL (≈ 5.8 µM). It also gave a pest or weed control at 500 ppm (Sclerotinia sclerotiorum) of 100%.

In the case of `Cc1onc(N(C)CC#CI)c1Cl` [compound 33, 3-(N-methyl-N-3-iodo-2-propynyl)amino-4-chloro-5-methylisoxazole], the MIC (Trichophyton asteroides [1]) is reported as 0.8 µg/mL (≈ 2.58 µM), the “Percent Disease Control” value [4] is reported as 100% and the MIC (Aspergillus fumigatus) is reported as 3.1 µg/mL (≈ 9.98 µM). It also gave an MIC (Candida albicans M-9) of 1.6 µg/mL (≈ 5.15 µM) and a pest or weed control at 500 ppm (Sclerotinia sclerotiorum) of 100%.

With `Cc1onc(NCC#CI)c1Cl` [compound 34, 3-(3-iodo-2-propynyl)-amino-4-chloro-5-methylisoxazole] the MIC (Mycoplasma hyopneumonia) was 3.13 to 12.5 µg/mL (≈ 10.6 to 42.2 µM), the “Percent Disease Control” value [4] was 100% and the “Percent Disease Control” value (Botrytis cinerea) was 100%. For the same compound, the “Percent Disease Control” value [2] was 100%.

With `Cc1c(N(C)CC#CI)noc1-c1ccccc1` [compound 36] the “Percent Disease Control” value (Pyricularia oryzae) was 90%.

`Cc1noc(C)c1NCC#CI` [compound 38, 3,5-dimethyl-4-(3-iodo-2-propynylamino)isoxazole] gave an MIC (Trichophyton asteroides [1]) of 0.8 µg/mL (≈ 2.9 µM), an MIC (Aspergillus fumigatus) of 3.1 µg/mL (≈ 11.2 µM) and an MIC (Candida albicans M-9) of 0.8 µg/mL (≈ 2.9 µM).
